The values below come from patent US20240174727A1, “LONG-ACTING NATRIURETIC PEPTIDES AND USES THEREOF” (Eli Lilly and Company, priority 2022, published 2024).

The target in the experiment is T1, rat NPRA (Rattus norvegicus, UniProt P18910).
T1 construct: Full-Length cDNA Cloning and Generation of Cell Lines Overexpressing Natriuretic Peptide Receptors (NPRs); expressed in transfected cells; host or cells: Jump-in T-Rex HEK293 cells, pJTI R4 CMV-TO MCS pA vector, tetracycline induction
T1 sequence (P18910 29-1057): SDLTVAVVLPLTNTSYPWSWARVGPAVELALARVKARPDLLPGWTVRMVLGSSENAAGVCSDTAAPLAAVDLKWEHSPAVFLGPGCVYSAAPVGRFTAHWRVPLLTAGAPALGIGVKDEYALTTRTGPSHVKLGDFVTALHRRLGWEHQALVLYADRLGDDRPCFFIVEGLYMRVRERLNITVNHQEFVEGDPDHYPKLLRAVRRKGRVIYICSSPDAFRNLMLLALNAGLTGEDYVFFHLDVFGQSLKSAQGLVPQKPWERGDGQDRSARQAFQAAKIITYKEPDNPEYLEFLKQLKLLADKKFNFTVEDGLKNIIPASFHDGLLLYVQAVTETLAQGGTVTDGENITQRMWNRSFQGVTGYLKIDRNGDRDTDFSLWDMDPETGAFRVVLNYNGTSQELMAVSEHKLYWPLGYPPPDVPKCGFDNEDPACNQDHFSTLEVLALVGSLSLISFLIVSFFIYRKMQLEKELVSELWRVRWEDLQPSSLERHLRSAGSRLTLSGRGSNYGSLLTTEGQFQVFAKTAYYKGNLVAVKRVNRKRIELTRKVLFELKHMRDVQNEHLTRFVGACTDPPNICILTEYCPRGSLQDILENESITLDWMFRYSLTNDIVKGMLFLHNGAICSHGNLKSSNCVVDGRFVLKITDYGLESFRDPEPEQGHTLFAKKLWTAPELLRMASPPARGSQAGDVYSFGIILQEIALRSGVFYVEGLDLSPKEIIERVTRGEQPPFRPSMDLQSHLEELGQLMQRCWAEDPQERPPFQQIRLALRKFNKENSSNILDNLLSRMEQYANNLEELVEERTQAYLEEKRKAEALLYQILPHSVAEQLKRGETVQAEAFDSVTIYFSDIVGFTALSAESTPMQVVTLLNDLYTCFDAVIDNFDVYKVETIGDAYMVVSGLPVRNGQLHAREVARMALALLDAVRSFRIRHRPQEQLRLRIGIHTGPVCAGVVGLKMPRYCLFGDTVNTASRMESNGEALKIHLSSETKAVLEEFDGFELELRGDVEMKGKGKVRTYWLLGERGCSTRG
Description: Rat NPRA cGMP activity assay (HTRF) in HEK293 cells overexpressing NPRA. Type of experiment: cell-based. As to the method: All sequences were verified by full-length sequencing performed by ACGT DNA Sequencing Services (Wheeling, IL). The target cDNA was cloned into pJTI R4 CMV-TO MCS pA vector and then co-transfected with pJT1R4 Int vector into Jump-in™ T-Rex™ HEK293 cells for mammalian inducible expression using Jump-in™ T-Rex™ HEK293 kit and Lipofectamine LTX and Plus Reagent following manufacturer's protocols, as briefly described below.
Jump-in™ T-Rex™ HEK293 cells were plated in a BioCOAT® poly-D-lysine coated 6-well plate (Becton Dickinson, cat no. 354413) at 1 million cells/well in 2 mL culture medium and incubated for 18 h at 37° C. and 5% CO2 to 50-70% confluence. A cDNA mix was made in a 50 mL tube by adding 1.5 μg target cDNA, 1.5 μg pJT1R4 Int vector, 3 μL Plus Reagent, and 300 μL Opti-MEM I sequentially into the tube. A reagent mix was made in a separate 50 mL tube by adding 7.5 μL Lipofectamine LTX into 300 μL Opti-MEM I. The mixtures were incubated for 5 min at room temperature. The cDNA mix was then transferred into the reagent mix, mixed well, and incubated for additional 30 min at room temperature. A 500 μL of cDNA/Lipofectamine complex was then transferred to the wells of the cell plate in which the culture medium was changed to 2 mL of transfection medium containing DMEM with 4.5 g/L D-glucose supplemented with 10% FBS-HI and 20 mM HEPES. Transfected cells were cultured for 48 h in an incubator at 37° C. and 5% CO2. A subclone or pool from each overexpressing cell line was maintained in culture medium with the addition of 2 mg/mL G418 sulfate for the clone selection based on its built-in resistance to G418 sulfate for at least 3 weeks with medium changed every 2-3 days.
NPRs were overexpressed in T-Rex™ HEK293 cells following the induction with 300 ng/mL tetracycline in culture medium for 48 h. Induced cell lines in an exponential growth phase were treated with 0.05% trypsin-EDTA for a few seconds at room temperature, harvested in cell medium containing FBS to neutralize the trypsin, counted, and cryopreserved at the density of 2 million cells/mL in cell preservation solution containing FBS-HI with 5% DMSO. Cryopreserved cells were stored at −80° C. for a few days prior to transferring to a liquid nitrogen tank. Induced cell lines were then used for suspension assays to measure the activity of polypeptides to stimulate cGMP production in cGMP assays or for the preparation of cell membranes to measure the binding activity of polypeptides in competitive radioligand binding assays, as described below.
Test polypeptides were added starting at 10 μM concentration and at 10-fold decreasing concentrations to obtain 8-point concentration-response curves (i.e., 10 μM to 1 pM). The quantity of cGMP generated was detected using HTRF® technology and normalized to maximum amount produced by 100 nM amidated rat ANP and the minimum amount produced by assay buffer. Detailed steps are outlined below.
Stock solutions of test polypeptides (2 mM) dissolved in DMSO were first diluted 100-fold in assay buffer containing HBSS with Ca^2+ and Mg^2+, 5 mM HEPES, 0.5 mM IBMX, and 0.1% BSA or 0.1% casein (pH 7.4). The polypeptides were further serially diluted in 1:10 dilution steps in assay buffer containing 0.1% BSA or 0.1% casein to generate 8-point 2× working stock solutions ranging from 20 μM to […].
A 10 μL cell suspension containing 4000 cells was plated in Costar® half-area white opaque 96-well plates (Corning, cat no. 3693). Then 10 μL of assay buffer (basal activity), 200 nM of amidated rat ANP (maximum activity) or 2× working stock solutions of test polypeptides were transferred into the plate. Final concentration of DMSO in each well was 0.5%. The plate was shaken for 15 sec and then incubated for 40 min at room temperature.
The cGMP generated was measured using cGMP kit following the manufacturer's directions, as described below.
In general terms: In TR-FRET formats the signal depends on donor and acceptor labels being close together.

Setting [1] is: cGMP Assay (EC50, pM) w/Casein rNPRA, assay buffer with 0.1% casein.

Read-outs that look alike come from different tables or passages of the source.

Under setting [1], `CC[C@H](C)[C@@H]1NC(=O)[C@H](CCCNC(=N)N)NC(=O)[C@H](CC(=O)O)NC(=O)[C@H]([C@@H](C)CC)NC(=O)[C@H](CCCNC(=N)N)NC(=O)[C@H](CCCCN)NC(=O)CNC(=O)[C@H](Cc2ccccc2)NC(=O)[C@@H](NC(=O)[C@H](CO)NC(=O)[C@H](CO)NC(=O)[C@H](CCCNC(=N)N)NC(=O)[C@@H]2CCCN2C(=O)[C@H](CCCCN)NC(=O)[C@H](CCC(=O)O)NC(=O)COCCOCCNC(=O)COCCOCCNC(=O)COCCOCCNC(=O)COCCOCCNC(=O)COCCOCCNC(=O)COCCOCCNC(=O)CNC(=O)[C@H](CCCCN)NC(=O)[C@H](CCC(=O)O)NC(=O)[C@H](CCCCN)NC(=O)[C@H](CCC(=O)O)NC(=O)[C@H](CCCCN)NC(=O)[C@H](CCC(=O)O)NC(=O)CC[C@H](NC(=O)CCCCCCCCCCCCCCCCCCC(=O)O)C(=O)O)CSCSC[C@@H](C(=O)N2CCC[C@H]2C(=O)N[C@@H](CO)C(=O)N[C@@H](Cc2ccccc2)C(=O)N[C@@H](CCCNC(=N)N)C(=O)N[C@@H](Cc2c[nH]cn2)C(=O)NCC(=O)N[C@@H](CO)C(=O)N2CCC[C@H]2C(=O)N[C@@H](CO)C(=O)N[C@@H](CO)C(=O)NCC(=O)N[C@@H](C)C(=O)N2CCC[C@H]2C(=O)N2CCC[C@H]2C(=O)N2CCC[C@H]2C(=O)N[C@@H](CO)C(N)=O)NC(=O)CNC(=O)[C@H](CC(C)C)NC(=O)CNC(=O)[C@H](CO)NC(=O)[C@H](Cc2ccc(O)cc2)NC(=O)[C@H](Cc2c[nH]cn2)NC(=O)CNC1=O` [Example 122, HOOC-(CH2)18-CO-(γGlu)-EKEKEKG-(AEEA)6-EKPRSS[CFGKRIDRIGHYSGLGCJPSFRHGSPSSGAPPPS-NH2] registered an EC50 of 3770 pM.

In the case of `CC[C@H](C)[C@@H]1NC(=O)[C@H](CCCNC(=N)N)NC(=O)[C@H](CC(=O)O)NC(=O)[C@H]([C@@H](C)CC)NC(=O)[C@H](CCCNC(=N)N)NC(=O)[C@H](CCCCN)NC(=O)CNC(=O)[C@H](Cc2ccccc2)NC(=O)[C@@H](NC(=O)[C@H](CO)NC(=O)[C@H](CO)NC(=O)[C@H](CCCNC(=N)N)NC(=O)[C@H](CCCNC(=N)N)NC(=O)[C@H](Cc2ccncc2)NC(=O)[C@H](CO)NC(=O)CCOCCOCCOCCOCCOCCOCCOCCOCCOCCOCCOCCOCCOCCOCCOCCOCCOCCOCCOCCOCCOCCOCCOCCOCCNC(=O)CNC(=O)[C@H](CCCCN)NC(=O)[C@H](CCC(=O)O)NC(=O)[C@H](CCCCN)NC(=O)[C@H](CCC(=O)O)NC(=O)[C@H](CCCCN)NC(=O)[C@H](CCC(=O)O)NC(=O)CC[C@H](NC(=O)CCCCCCCCCCCCCCCCCCC(=O)O)C(=O)O)CSCSC[C@@H](C(=O)N2CCC[C@H]2C(=O)N[C@@H](CO)C(=O)N[C@@H](Cc2ccccc2)C(=O)N[C@@H](CCCNC(=N)N)C(=O)N[C@@H](Cc2c[nH]cn2)C(=O)NCC(=O)NCC(=O)N[C@@H](CCCCN)C(=O)N[C@@H](CO)C(=O)N[C@@H](CO)C(=O)NCC(=O)N[C@@H](C)C(=O)N2CCC[C@H]2C(=O)N2CCC[C@H]2C(=O)N2CCC[C@H]2C(=O)N[C@@H](CO)C(N)=O)NC(=O)CNC(=O)[C@H](CC(C)C)NC(=O)CNC(=O)[C@H](CO)NC(=O)[C@H](CCC(N)=O)NC(=O)[C@H](Cc2c[nH]cn2)NC(=O)CNC1=O` [Example 109], the EC50 (assay buffer with 0.1% BSA, read-out: cGMP Assay (EC50, pM) w/BSA rNPRA) worked out at 276000 pM and the EC50 (assay buffer with 0.1% casein, read-out: cGMP Assay (EC50, pM) w/Casein rNPRA) stood at 16800 pM.

As for `CC[C@H](C)[C@@H]1NC(=O)[C@H](CCCNC(=N)N)NC(=O)[C@H](CC(=O)O)NC(=O)[C@H]([C@@H](C)CC)NC(=O)[C@H](CCCNC(=N)N)NC(=O)[C@H](CCCCN)NC(=O)CNC(=O)[C@H](Cc2ccccc2)NC(=O)[C@@H](NC(=O)[C@H](CO)NC(=O)[C@H](CO)NC(=O)[C@H](CCCNC(=N)N)NC(=O)[C@H](CCCNC(=N)N)NC(=O)[C@H](Cc2ccncc2)NC(=O)[C@H](CO)NC(=O)COCCOCCNC(=O)COCCOCCNC(=O)COCCOCCNC(=O)COCCOCCNC(=O)COCCOCCNC(=O)COCCOCCNC(=O)COCCOCCNC(=O)COCCOCCNC(=O)CNC(=O)[C@H](CCCCN)NC(=O)[C@H](CCC(=O)O)NC(=O)[C@H](CCCCN)NC(=O)[C@H](CCC(=O)O)NC(=O)[C@H](CCCCN)NC(=O)[C@H](CCC(=O)O)NC(=O)CC[C@H](NC(=O)CCCCCCCCCCCCCCCCCCC(=O)O)C(=O)O)CSCSC[C@@H](C(=O)N2CCC[C@H]2C(=O)N[C@@H](CO)C(=O)N[C@@H](Cc2ccccc2)C(=O)N[C@@H](CCCNC(=N)N)C(=O)N[C@@H](Cc2c[nH]cn2)C(=O)NCC(=O)N[C@@H](CO)C(=O)N2CCC[C@H]2C(=O)N[C@@H](CO)C(=O)N[C@@H](CO)C(=O)NCC(=O)N[C@@H](C)C(=O)N2CCC[C@H]2C(=O)N2CCC[C@H]2C(=O)N2CCC[C@H]2C(=O)N[C@@H](CO)C(N)=O)NC(=O)CNC(=O)[C@H](CC(C)C)NC(=O)CNC(=O)[C@H](CO)NC(=O)[C@H](Cc2ccc(O)cc2)NC(=O)[C@H](Cc2c[nH]cn2)NC(=O)CNC1=O` [Example 107], the EC50 came to 149000 pM (cGMP Assay (EC50, pM) w/BSA rNPRA, assay buffer with 0.1% BSA) and 3770 pM under setting [1].
